From paper PMC10931833, “Simultaneous Purification of Human Interferon Alpha-2b and Serum Albumin Using Bioprivileged Fluorinated Ionic Liquid-Based Aqueous Biphasic Systems” (International Journal of Molecular Sciences, 2024)

What was measured:
IFN-α2b [1] = target: T1, IFN-α2b (Homo sapiens, UniProt P01563); assay: Far-UV CD secondary structure of IFN-α2b (CONTIN-LL deconvolution); format: physicochemical
T1 construct: single non-glycosylated polypeptide chain with a molecular weight of 19 kDa, comprising 165 amino acids; purchased Millipore Sigma-Aldrich SRP4595-100UG; host or cells: E. coli
T1 sequence (P01563 24-188): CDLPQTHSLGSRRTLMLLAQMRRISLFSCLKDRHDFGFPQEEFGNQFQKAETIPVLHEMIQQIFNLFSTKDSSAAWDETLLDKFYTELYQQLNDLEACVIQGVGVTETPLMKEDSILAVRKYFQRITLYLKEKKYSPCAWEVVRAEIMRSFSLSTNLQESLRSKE
Text: Circular dichroism (CD) is widely used to study the secondary structures of proteins, peptides and nucleic acids, because it requires a low concentration sample, is a nondestructive method, allows studying a wide range of variables (temperature, pH, etc.), and provides information on the effect of added ligands on protein folding and interactions.
Circular dichroism (CD) spectra were collected in a 10 mm quartz cuvette and a Chirascan spectropolarimeter (Applied Photophysics, UK) at room temperature. All CD spectra were recorded in the far-UV range of 190 to 260 nm at scan rates of 50 nm/min, with 4 accumulations, and a response time of 3 s; CD spectra were collected. For each CD experiment, two distinct duplicates were acquired and combined. […] Spectral deconvolution was carried out with DichroWeb using the CONTIN-LL deconvolution algorithm with the SMP180 reference set.

IFN-α2b [2] = target: T1, IFN-α2b; assay: CD thermal unfolding (Tm) of IFN-α2b; format: physicochemical
Protocol: The same analyses attained for 208 nm and 192 nm are illustrated in Figures S5 and S6 in the Supplementary Materials. The corresponding T m values are estimated by fitting to a sigmoid with four parameters (one-way ANOVA, significance level of 0.05) and summarized in Table S2 in the Supplementary Materials. The CD T m of 0.125 mg/mL native IFN- α 2b is in good agreement with what was previously reported. […] The estimated T m values are summarized in Table S2 in the Supplementary Materials. The same analysis is attained for 208 nm and 192 nm, as depicted in Figures S5 and S6 in the Supplementary Materials. All the CD T m results are summarized in Table S2 in the Supplementary Materials. The thermal stability assessed by far-UV CD is solely determined through the thermal decay of the alpha-helical structure.
The same analysis was attained for 208 nm and 192 nm as illustrated in Figure S13 in the Supplementary Materials. The corresponding T m values are depicted in Table 5, and were estimated by fitting a sigmoid with four parameters (one-way ANOVA, with a significance level of 0.05).

[3] = ref 44 (IFN-α2b), 91 (BSA), 96 (Lys); cited from earlier work
BSA [4] = target: T2, BSA (Bos taurus, UniProt P02769); assay: DSC thermal unfolding of BSA in water and aqueous solutions of ABS phase-forming components; format: physicochemical, bovine; details: for Tm / ΔG / ΔHcal / ΔHcal/ΔHvH / ΔHvH / ΔS: 1.0 mg/mL BSA
T2 construct: purchased Millipore Sigma-Aldrich
T2 sequence (P02769 25-607): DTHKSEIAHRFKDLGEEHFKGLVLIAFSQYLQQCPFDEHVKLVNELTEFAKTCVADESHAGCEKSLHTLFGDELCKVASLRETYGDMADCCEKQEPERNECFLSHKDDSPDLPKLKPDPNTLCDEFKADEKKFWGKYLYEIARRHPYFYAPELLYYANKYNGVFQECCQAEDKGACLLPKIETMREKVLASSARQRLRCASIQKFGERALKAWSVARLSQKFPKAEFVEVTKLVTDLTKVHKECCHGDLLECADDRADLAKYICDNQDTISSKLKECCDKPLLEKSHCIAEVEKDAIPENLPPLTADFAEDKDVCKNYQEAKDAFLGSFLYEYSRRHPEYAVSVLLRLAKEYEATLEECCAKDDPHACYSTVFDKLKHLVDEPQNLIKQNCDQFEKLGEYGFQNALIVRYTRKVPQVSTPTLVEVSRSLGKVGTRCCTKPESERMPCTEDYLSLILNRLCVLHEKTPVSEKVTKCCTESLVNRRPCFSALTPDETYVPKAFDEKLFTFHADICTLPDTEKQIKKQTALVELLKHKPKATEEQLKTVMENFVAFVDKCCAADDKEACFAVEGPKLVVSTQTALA
Protocol: Differential scanning calorimetry (DSC) measurements were performed with Nano DSC equipment, as detailed in Section 3, and used to determine the melting temperature (T m ) and enthalpy ( Δ H) of protein unfolding. DSC analyzes changes in the structure and stability of proteins as thermal transitions at the nanoscale. Using DSC to measure heat capacity as a function of the temperature of a well-studied protein such as BSA provides keen insights into folding and unfolding processes, as well as factors affecting stability. Due to the volume and concentration requirements of the DSC technique, and the constraints in available quantities of IFN- α 2b the DSC experiments on the ABS phase-forming components’ effect on the structural properties of proteins were attained only for BSA.
The T m of BSA, which corresponds to the thermal unfolding transition midpoint, was measured in the absence and presence of the ABS phase-forming components at increasing concentrations (see Figure 1 and Table 2).

BSA [5] = target: T2, BSA; assay: Far-UV CD secondary structure of BSA (CONTIN-LL deconvolution); format: physicochemical, bovine; design: Regular Alpha Helix / Distorted Alpha Helix / Regular Beta Sheet / Distorted Beta Sheet / Turns / Unordered: unit not given here; details: 1.0 mg/mL BSA, 25 °C
Text: Circular dichroism (CD) is widely used to study the secondary structures of proteins, peptides and nucleic acids, because it requires a low concentration sample, is a nondestructive method, allows studying a wide range of variables (temperature, pH, etc.), and provides information on the effect of added ligands on protein folding and interactions. Far-UV (190–260 nm) CD spectroscopy was used to assess the IFN- α 2b and BSA secondary structure since the spectra are characteristic of different structural elements.
Circular dichroism (CD) spectra were collected in a 10 mm quartz cuvette and a Chirascan spectropolarimeter (Applied Photophysics, UK) at room temperature. All CD spectra were recorded in the far-UV range of 190 to 260 nm at scan rates of 50 nm/min, with 4 accumulations, and a response time of 3 s; CD spectra were collected. For each CD experiment, two distinct duplicates were acquired and combined. BSA was fixed at 1 mg/mL, solvent concentrations ranging from 0.1 to 200 mM were used, and the spectra were translated to MRE after being expressed in terms of molar ellipticity. Spectral deconvolution was carried out with DichroWeb using the CONTIN-LL deconvolution algorithm with the SMP180 reference set.

BSA [6] = target: T2, BSA; assay: CD thermal unfolding (Tm) of BSA; format: physicochemical, bovine; details: 1.0 mg/ml BSA, 200 mM component aqueous solution
Text: The thermal stability assessed by far-UV CD is solely determined through the thermal decay of the alpha-helical structure.

FITC-BSA = target: T3, FITC-BSA (Bos taurus, UniProt P02769); assay: MST binding to FITC-BSA; design: species or system bovine; details: 0.41 μM BSA
T3 construct: purchased Millipore Sigma-Aldrich
T3 sequence (P02769 25-607): as above
Protocol: Herein, a commercial FITC labeling kit (Section 3) was used to fluorescently tag both IFN- α 2b and BSA. Typically, in the labeling process, one amine per protein is labeled, statistically distributing the position of the dye. […] The MST assay was performed as detailed in Section 3. The solutions were prepared with a concentration of IFN- α 2b and BSA fixed at 0.41 μ M in water. For IFN- α 2b a concentration of 2.7 μ M was also prepared to compare it with previous results on MST-binding between FILs and IFN- α 2b fluorescently labeled with a different tag. In each run of MST, a maximum concentration of a ligand is selected and consecutively diluted in sixteen capillaries. […] The experimental conditions of the MST assay only allow the study of the aggregation phenomenon individually for the first CAC.
Microscale thermophoresis (MST) measurements of the dye-labeled protein were used to conduct binding investigations. […] MST tests were conducted in a monolith NT.115 (blue/red) in accordance with the NanoTemper Technologies methodology. Medium MST power and 20% LED power (nano-blue) were set as the instrument’s default settings. For every MST measurement, a PBS buffer was used. The concentration of FITC-BSA was fixed at 0.4 μ M and FITC-IFN- α 2b was tested under two different concentrations (of 0.4 and 2.7 μ M). The ligand was used to create a set of 16 1:1 dilutions, with the starting ligand concentrations ranging from 10 to 400 mM. The typical parameters for MST traces were used for recording: […], 30 s MST power on, and 5 s MST power off. The data from three independently conducted pipetted experiments were examined using NanoTemper Technologies’ MO.Affinity Analysis software, version 2.3.

[7] = 0.125 mg/mL IFN-α2b in water, 25 °C
[8] = 0.099-0.12 mg/mL IFN-α2b in [N1112(OH)][C4F9SO3]-rich phase of BP#8

Human interferon-alpha 2b [IFN-α2b]
Distorted Alpha Helix (IFN-α2b [1]; [7]): 0.145 | Distorted Beta Sheet (IFN-α2b [1]; [7]): 0.071 | Regular Alpha Helix (IFN-α2b [1]; [7]): 0.289 | Regular Beta Sheet (IFN-α2b [1]; [7]): 0.049 | Turns (IFN-α2b [1]; [7]): 0.209 | Unordered (IFN-α2b [1]; [7]): 0.238 | predicted α-helical content (IFN-α2b [1]; IFN-α2b in water, CD deconvolution): 0.44 | Tm, Ellipticity 192 nm (IFN-α2b [2]; 0.125 mg/mL IFN-α2b in water): 63.311 °C | Tm, Ellipticity 208 nm (IFN-α2b [2]; 0.125 mg/mL IFN-α2b in water): 66.156 °C | Tm, Ellipticity 222 nm (IFN-α2b [2]; 0.125 mg/mL IFN-α2b in water): 67.548 °C | Tm, Ellipticity 192 nm (IFN-α2b [2]; [8]): 42.274 °C | Tm, Ellipticity 208 nm (IFN-α2b [2]; [8]): 71.217 °C | Tm, Ellipticity 222 nm (IFN-α2b [2]; [8]): 62.080 °C | iso-electric point [3]: around 5.9

lysozyme
iso-electric point [3]: approximately 11.0

OC[C@H]1O[C@@](CO)(O[C@H]2O[C@H](CO)[C@@H](O)[C@H](O)[C@H]2O)[C@@H](O)[C@@H]1O [Sucrose, sucrose]
Tm (BSA [4]; 0.1 mM component): 79.97 °C | ΔG (BSA [4]; 0.1 mM component): 19.6 kcal/mol | ΔHcal (BSA [4]; 0.1 mM component): 125 kcal/mol | ΔHcal/ΔHvH (BSA [4]; 0.1 mM component): 0.968 | ΔHvH (BSA [4]; 0.1 mM component): 129.2 kcal/mol | ΔS (BSA [4]; 0.1 mM component): 1.480 KJ/(mol.K) | Tm (BSA [4]; 1 mM component): 81.63 °C | ΔG (BSA [4]; 1 mM component): 26.77 kcal/mol | ΔHcal (BSA [4]; 1 mM component): 167.4 kcal/mol | ΔHcal/ΔHvH (BSA [4]; 1 mM component): 0.980 | ΔHvH (BSA [4]; 1 mM component): 170.8 kcal/mol | ΔS (BSA [4]; 1 mM component): 1.974 KJ/(mol.K) | Tm (BSA [4]; 5 mM component): 80.68 °C | ΔG (BSA [4]; 5 mM component): 20.87 kcal/mol | ΔHcal (BSA [4]; 5 mM component): 131.5 kcal/mol | ΔHcal/ΔHvH (BSA [4]; 5 mM component): 1.018 | ΔHvH (BSA [4]; 5 mM component): 129.1 kcal/mol | ΔS (BSA [4]; 5 mM component): 1.552 KJ/(mol.K) | Tm (BSA [4]; 10 mM component): 80.77 °C | ΔG (BSA [4]; 10 mM component): 25.17 kcal/mol | ΔHcal (BSA [4]; 10 mM component): 159 kcal/mol | ΔHcal/ΔHvH (BSA [4]; 10 mM component): 1.046 | ΔHvH (BSA [4]; 10 mM component): 151.9 kcal/mol | ΔS (BSA [4]; 10 mM component): 1.878 KJ/(mol.K) | effect on BSA Tm (DSC) (BSA [4]; tested concentration range vs water): maintained | Distorted Alpha Helix (BSA [5]; 0.1 mM component): 0.205 | Distorted Beta Sheet (BSA [5]; 0.1 mM component): 0.026 | Regular Alpha Helix (BSA [5]; 0.1 mM component): 0.391 | Regular Beta Sheet (BSA [5]; 0.1 mM component): 0.000 | Turns (BSA [5]; 0.1 mM component): 0.136 | Unordered (BSA [5]; 0.1 mM component): 0.242 | Distorted Alpha Helix (BSA [5]; 1 mM component): 0.216 | Distorted Beta Sheet (BSA [5]; 1 mM component): 0.023 | Regular Alpha Helix (BSA [5]; 1 mM component): 0.428 | Regular Beta Sheet (BSA [5]; 1 mM component): 0.000 | Turns (BSA [5]; 1 mM component): 0.135 | Unordered (BSA [5]; 1 mM component): 0.198 | Distorted Alpha Helix (BSA [5]; 5 mM component): 0.225 | Distorted Beta Sheet (BSA [5]; 5 mM component): 0.022 | Regular Alpha Helix (BSA [5]; 5 mM component): 0.427 | Regular Beta Sheet (BSA [5]; 5 mM component): 0.000 | Turns (BSA [5]; 5 mM component): 0.136 | Unordered (BSA [5]; 5 mM component): 0.19 | Distorted Alpha Helix (BSA [5]; 25 mM component): 0.196 | Distorted Beta Sheet (BSA [5]; 25 mM component): 0.024 | Regular Alpha Helix (BSA [5]; 25 mM component): 0.333 | Regular Beta Sheet (BSA [5]; 25 mM component): 0.004 | Turns (BSA [5]; 25 mM component): 0.131 | Unordered (BSA [5]; 25 mM component): 0.312 | Distorted Alpha Helix (BSA [5]; 55 mM component): 0.211 | Distorted Beta Sheet (BSA [5]; 55 mM component): 0.026 | Regular Alpha Helix (BSA [5]; 55 mM component): 0.412 | Regular Beta Sheet (BSA [5]; 55 mM component): 0.000 | Turns (BSA [5]; 55 mM component): 0.138 | Unordered (BSA [5]; 55 mM component): 0.214 | Distorted Alpha Helix (BSA [5]; 90 mM component): 0.211 | Distorted Beta Sheet (BSA [5]; 90 mM component): 0.025 | Regular Alpha Helix (BSA [5]; 90 mM component): 0.4 | Regular Beta Sheet (BSA [5]; 90 mM component): 0.000 | Turns (BSA [5]; 90 mM component): 0.137 | Unordered (BSA [5]; 90 mM component): 0.227 | Distorted Alpha Helix (BSA [5]; 120 mM component): 0.212 | Distorted Beta Sheet (BSA [5]; 120 mM component): 0.025 | Regular Alpha Helix (BSA [5]; 120 mM component): 0.415 | Regular Beta Sheet (BSA [5]; 120 mM component): 0.000 | Turns (BSA [5]; 120 mM component): 0.135 | Unordered (BSA [5]; 120 mM component): 0.213 | Distorted Alpha Helix (BSA [5]; 200 mM component): 0.216 | Distorted Beta Sheet (BSA [5]; 200 mM component): 0.024 | Regular Alpha Helix (BSA [5]; 200 mM component): 0.436 | Regular Beta Sheet (BSA [5]; 200 mM component): 0.000 | Turns (BSA [5]; 200 mM component): 0.136 | Unordered (BSA [5]; 200 mM component): 0.189 | Tm, Ellipticity 192 nm (BSA [6]): 70.098 °C | Tm, Ellipticity 208 nm (BSA [6]): 73.063 °C | Tm, Ellipticity 222 nm (BSA [6]): 71.977 °C | Kd (FITC-BSA; max. conc. first capillary 12.5 mM (monomer)): no binding detected | Kd (FITC-BSA; max. conc. first capillary 400 mM (monomer)): no binding detected
